The text below walks through data of US7132286B2, “Method for neural stem cell differentiation using valproate” (Psychiatric Genomics, Inc., priority 2001, dated 2006).

What all share (type): cell-based
The test system of experiment [1] is rat stem cells from ventral forebrain i.e. the lateral ganglionic eminence (LGE). Kind of experiment: Neuronal differentiation of rat stem cells from ventral forebrain (lateral ganglionic eminence). The following applies: data not shown. Here is the method: Isolation of cortical and striatal stem cells. […] The abdomen of the rat was cleaned with 70% ethanol and the uterus was removed quickly and aseptically on the bench top.
Removal of meninges is not possible at this age, and no attempt was made to do so. If the dissected tissue was in large enough chunks and settle to the bottom of the tube, no centrifugation was performed. Alternatively, the tube was centrifuged at 1000 rpm for 5 minutes to pellet the tissue. Following centrifugation, the 15 ml tube containing the tissue was sprayed with 70% ethanol and taken into the sterile hood.
About 4–5 ml of the 6 ml of cells suspension was used for plating. […] This culture is designated P0 (passage 0).
The cultures were never permitted to reach more than 70% confluency. […] It is not expected that all cells in the culture will round up as there are several cell types in the culture at P0. The pH of the HBSS should be neutral at all times during this incubation.

For experiment [2], the system named is glutamate decarboxylase (GAD). Kind of experiment: Western blot of GAD 65/67 expression in rat cortical stem cell cultures. The conditions noted are these: 0.5 mM valproate. Here is the method: Western blotting. Cells were plated at 1×10^6 cells/100 mm dish in poly-1-ornithine-coated 10 cm dishes and treated as described supra. Denatured proteins were separated on 8% polyacrylamide Tris-Glycine gels (Novex) and transferred to nitrocellulose membranes (BioRad). Membranes were probed with antibodies against rabbit anti-GAD 65/67 (Sigma) at 1:10,000 and HRP-conjugated anti-rabbit (Jackson Immunolabs) at 1:10,000 respective dilutions. Antigen-antibody complexes were visualized using a SuperSignal West Pico Chemiluminescent Kit (Pierce).
(A western blot detects proteins with antibodies after separation by electrophoresis.)

Experiment [3] has as its system human striatal stem cells (line 161). The experiment is described as follows: Neuronal differentiation of human striatal stem cells (β tubulin III neurons, total cells). The conditions noted are these: 9 days. Here is the method:
Expansion and differentiation of striatal human stem cells. Human stem cells were provided from ReNeuron Inc. (U.K.). Striatum was obtained after 6 to 12 weeks of gestation from routine legal abortion. Cell line was provided by ReNeuron at passage 16. The stem cells were expanded in untreated 25 cm^2 tissue culture flasks (Nunc, USA) in the presence of 20 ng/ml and 10 ng/ml of human recombinant EGF and bFGF respectively, in NSA basal serum-free medium (Euroclone, U.K). Fresh medium and growth factors were added every 3 days. In these conditions stem cells were growing as floating neurospheres. After 4 weeks, the neurospheres were harvested, treated with a mild papain treatment in HBSS and dissociated into a single cell suspension. Cells were counted and viability was estimated by trypan blue exclusion method. Cells were differentiated by growth factors removal. The cells were plated in NSA medium at 20,000 cells/well on LabTek permanox culture slides of 8 wells precoated with laminin (1 μg/ml). Cells were treated with valproate and BDNF for 9 days at 37° C. and a saturated humidified atmosphere of 5% CO2, 1% O2 and 94% N2. Fresh medium and re-treatment with factors was performed every 3 days.
Drug treatment. For immunofluorescence and Western analysis, cells were treated daily with either 0.5 mM of valproate (Sigma), 10 ng/ml of BDNF (R & D Systems), 20 ng/ml of NT-3 (R & D Systems), 1 nM 9cis retinoic acid (Sigma) or a dilution of NCM for 6 or 7 days. In some experiments valproate was also added with NCM and/or 9cis RA for 7 days. For human stem cell experiments, valproate (0.5 mM) or BDNF (25 ng/ml) was added for 9 days. For neurite outgrowth experiments, cells were treated for 1 day with 0.5 mM valproate or 50 ng/ml of BDNF. Where applicable, medium was changed every 2 days. After about 5–10 days, preferably on day 6 (i.e., after 6 days of drug exposure) the cells were fixed with a 4% solution of para-formaldehyde (PFA) in PBS, prepared as follows:
Immunofluorescent staining and visualization. Cells were plated at 20,000 cells/well in poly-L-ornithine/fibronectin (1 mg/ml) coated 24-well plates. […]
For counting, three to five different fields of interest at magnification 10× or 20× were chosen randomly. For immunofluorescence, 3 different black and white pictures were taken by field of interest with a digital camera CoolSnap Fx (Princeton) corresponding to the exposure of Cy2, Cy3 and Hoechst fluorescence. […] The percentage of neurons, astrocytes and GABAergic cells was determined by comparing the number of cells immunopositive for β-tubulin III, GFAP and GABA to the number of bis-benzamide stained nuclei (i.e., total cell number). […]

“Also recorded” adds a separate entry of the source.

On to `CCCC(CCC)C(=O)O` [valproate, 2-Propylpentanoic acid], for which the “percentage and number of neurons” value in experiment [1] is “increased the percentage and number of neurons”. Also, the GAD expression result in experiment [2] (3 and 6 days) is “GAD expression was increased; also recorded: increases GAD expression after 3 and 6 days”. For the same molecule, the GAD expression entry in experiment [2] (1 day) was “No expression of GAD was detectable”. In experiment [3], the “effect on cell proliferation (cell density)” value is recorded as “without inhibiting cell proliferation”; the “effect on number of β tubulin III positive neurons / neuronal differentiation” value is “increased the number of β tubulin III positive neurons compared to control and BDNF-treated cultures; also recorded: increases neuronal differentiation in human stem cell culture”. The molecule also returned a neuronal differentiation in experiment [3] (0.5 mM valproate, BDNF 25 ng/ml, untreated control 40%) of 70%.
